Values quoted from earlier work as cited in patent US11034961B2 (priority 2015, dated 2021).

How the values were obtained:
[1] = infusion into the scala tympani
[2] = administered by IV

Cc1ccccc1C(=O)Nc1ccc(C(=O)N2CCCC(N(C)C)c3ccccc32)cc1 (centres unmarked) [OPC-31260]
Meniere's disease symptoms [1]: marked reduction

CCN(CC)CC(=O)Nc1c(C)cccc1C [Lidocaine]
sufferers in whom the noise associated with tinnitus is reduced or eliminated [2]: 60-80%
